These results are taken from article PMC12115184, “Metformin-Induced Apoptosis Is Mediated Through Mitochondrial VDAC1” (Pharmaceuticals, 2025).

This assay has as its target T1, VDAC1 (Rattus norvegicus, UniProt Q9Z2L0).
T1 construct: VDAC1 purified from rat liver mitochondria (channel conductance)
Put plainly: planar lipid bilayer conductance of reconstituted purified VDAC1; MST with N-terminal peptide. The assay is classed as biochemical.

T1 sequence (Q9Z2L0 2-283): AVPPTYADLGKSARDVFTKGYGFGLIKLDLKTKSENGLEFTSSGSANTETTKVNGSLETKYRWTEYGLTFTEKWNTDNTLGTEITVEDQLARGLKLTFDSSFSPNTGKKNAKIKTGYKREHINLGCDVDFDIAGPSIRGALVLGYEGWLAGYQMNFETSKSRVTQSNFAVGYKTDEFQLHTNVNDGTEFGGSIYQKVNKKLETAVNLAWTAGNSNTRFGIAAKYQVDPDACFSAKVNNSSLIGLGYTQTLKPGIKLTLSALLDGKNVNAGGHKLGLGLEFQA

`CN(C)C(=N)N=C(N)N` [metformin, 3-(diaminomethylidene)-1,1-dimethylguanidine]: the “planar lipid bilayer conductance of reconstituted purified VDAC1; MST with N-ter” value was “Metformin reduced VDAC1 conductance only after the channel was exposed to a high voltage step”.
